Results: patent US9670157B2, “Benzylamine derivatives” (KALVISTA PHARMACEUTICALS LIMITED, priority 2013, dated 2017)

Columns and labels:
Human plasma kallikrein = Human plasma kallikrein (Homo sapiens (Human), UniProt P03952); test: Determination of the IC50 for Plasma Kallikrein; type: biochemical; conditions: 37° C., fluorogenic substrate H-DPro-Phe-Arg-AFC; read-out: IC50 (human PKal)
Description: Human plasma kallikrein (Protogen) was incubated at 37° C. with the fluorogenic substrate H-DPro-Phe-Arg-AFC and various concentrations of the test compound. Residual enzyme activity (initial rate of reaction) was determined by measuring the change in optical absorbance at 410 nm and the IC50 value for the test compound was determined.

Human KLK1 = Human KLK1 (Homo sapiens (Human), UniProt P06870); test: Determination of the IC50 for KLK1; type: biochemical; conditions: 37° C., fluorogenic substrate H-DVal-Leu-Arg-AFC
Description: KLK1 inhibitory activity in vitro was determined using standard published methods (see e.g. Johansen et al., Int. J. Tiss. Reac. 1986, 8, 185; Shori et al., Biochem. Pharmacol., 1992, 43, 1209; Stürzebecher et al., Biol. Chem. Hoppe-Seyler, 1992, 373, 1025). Human KLK1 (Callbiochem) was incubated at 37° C. with the fluorogenic substrate H-DVal-Leu-Arg-AFC and various concentrations of the test compound. Residual enzyme activity (initial rate of reaction) was determined by measuring the change in optical absorbance at 410 nm and the IC50 value for the test compound was determined.

Chain of Human plasma kallikrein (P03952 391-638): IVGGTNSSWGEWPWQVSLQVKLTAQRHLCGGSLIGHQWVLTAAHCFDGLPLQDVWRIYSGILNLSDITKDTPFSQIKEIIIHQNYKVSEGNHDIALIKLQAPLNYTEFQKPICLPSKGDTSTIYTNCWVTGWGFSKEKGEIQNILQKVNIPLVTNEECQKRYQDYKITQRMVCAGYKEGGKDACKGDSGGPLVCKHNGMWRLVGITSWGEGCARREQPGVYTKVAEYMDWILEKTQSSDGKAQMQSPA
Chain of Human plasma kallikrein (P03952 20-390 partner): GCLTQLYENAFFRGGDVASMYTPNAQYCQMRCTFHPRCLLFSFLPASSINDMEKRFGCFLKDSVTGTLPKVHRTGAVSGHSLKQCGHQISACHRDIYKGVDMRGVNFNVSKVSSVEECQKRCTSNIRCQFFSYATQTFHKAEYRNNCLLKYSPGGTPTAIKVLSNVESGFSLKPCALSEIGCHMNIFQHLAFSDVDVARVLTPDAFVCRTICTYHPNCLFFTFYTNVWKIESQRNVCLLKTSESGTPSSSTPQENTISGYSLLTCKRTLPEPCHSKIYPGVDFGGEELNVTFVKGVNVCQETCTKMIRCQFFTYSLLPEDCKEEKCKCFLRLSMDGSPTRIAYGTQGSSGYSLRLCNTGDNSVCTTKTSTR
Chain of Human KLK1 (P06870 25-262): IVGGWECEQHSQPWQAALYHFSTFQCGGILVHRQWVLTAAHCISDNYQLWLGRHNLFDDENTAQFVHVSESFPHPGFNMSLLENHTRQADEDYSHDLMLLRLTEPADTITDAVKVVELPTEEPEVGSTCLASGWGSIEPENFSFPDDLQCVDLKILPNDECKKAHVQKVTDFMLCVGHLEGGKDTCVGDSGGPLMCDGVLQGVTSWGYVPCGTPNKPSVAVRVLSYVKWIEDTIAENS

Structure (SMILES) | IC50 (Human plasma kallikrein) [nM] | IC50 (Human KLK1) [nM]
Cc1cc(CN)cc(C)c1CNC(=O)c1cc(C)n(Cc2csc(-c3ccccc3)n2)c1C [Example 3, 2,5-Dimethyl-1-(2-phenyl-thiazol-4-ylmethyl)-1H-pyrrole-3-carboxylic acid 4-aminomethyl-2,6-dimethyl-benzylamide] | 6 | > 10000
Cc1cc(C(=O)NCc2ccc(C3(N)CC3)cc2)c(C)n1Cc1csc(-c2ccccc2)n1 [Example 4, 2,5-Dimethyl-1-(2-phenyl-thiazol-4-ylmethyl)-1H-pyrrole-3-carboxylic acid 4-(1-amino-cyclopropyl)-benzylamide] | 121 | > 10000
Cc1cc(C(=O)NCc2ccc(CN)cc2)c(C)n1Cc1csc(-c2cccnc2)c1 [Example 8, 2,5-Dimethyl-1-(5-pyridin-3-yl-thiophen-3-ylmethyl)-1H-pyrrole-3-carboxylic acid 4-aminomethyl-benzylamide] | 348 | 6360
Cc1cc(C(=O)NCc2ccc(CN)cc2)c(C)n1Cc1csc(-c2ccccc2)c1 [Example 10, 2,5-Dimethyl-1-(5-phenyl-thiophen-3-ylmethyl)-1H-pyrrole-3-carboxylic acid 4-aminomethyl-benzylamide] | 571 | > 10000
Cc1cc(C(=O)NCc2ccc(CN)cc2)c(C)n1Cc1cc(-c2ccccc2)no1 [Example 11, 2,5-Dimethyl-1-(3-phenyl-isoxazol-5-ylmethyl)-1H-pyrrole-3-carboxylic acid 4-aminomethyl-benzylamide] | 2420 | > 10000
Cc1cc(C(=O)NCc2ccc(CN)cc2)c(C)n1Cc1nc2ccccc2s1 [Example 12, 1-Benzothiazol-2-ylmethyl-2,5-dimethyl-1H-pyrrole-3-carboxylic acid 4-aminomethyl-benzylamide] | 5120 | > 10000
Cc1cc(C(=O)NCc2ccc(CN)cc2)c(C)n1Cc1cc(-c2cccnc2)cs1 [Example 13, 2,5-Dimethyl-1-(4-pyridin-3-yl-thiophen-2-ylmethyl)-1H-pyrrole-3-carboxylic acid 4-aminomethyl-benzylamide] | 2380 | > 10000
Cc1cc(C(=O)NCc2ccc(CN)cc2)c(C)n1Cc1cc(-c2ccncc2)cs1 [Example 14, 2,5-Dimethyl-1-(4-pyridin-4-yl-thiophen-2-ylmethyl)-1H-pyrrole-3-carboxylic acid 4-aminomethyl-benzylamide] | 2300 | 6370
Cc1cc(C(=O)NCc2ccc(CN)cc2)c(C)n1Cc1cccc(N2CCOCC2)n1 [Example 15, 2,5-Dimethyl-1-(6-morpholin-4-yl-pyridin-2-ylmethyl)-1H-pyrrole-3-carboxylic acid 4-aminomethyl-benzylamide] | 5690 | > 10000
Cc1cc(C(=O)NCc2ccc(CN)cc2)c(C)n1Cc1cccc(-c2ccccc2)n1 [Example 16, 2,5-Dimethyl-1-(6-phenyl-pyridin-2-ylmethyl)-1H-pyrrole-3-carboxylic acid 4-aminomethyl-benzylamide] | 186 | > 10000
Cc1cc(C(=O)NCc2ccc(CN)cc2)c(C)n1Cc1cccc(-c2cccnc2)n1 [Example 17, 1-[2,3′]Bipyridinyl-6-ylmethyl-2,5-dimethyl-1H-pyrrole-3-carboxylic acid 4-aminomethyl-benzylamide] | 492 | > 10000
Cc1cc(C(=O)NCc2ccc(CN)cc2)c(C)n1Cc1coc(-c2ccccc2)n1 [Example 18, 2,5-Methyl-1-(2-phenyl-oxazol-4-ylmethyl)-1H-pyrrole-3-carboxylic acid 4-aminomethyl-benzylamide] | 435 | > 10000
Cc1oc(-c2ccccc2)nc1Cn1c(C)cc(C(=O)NCc2ccc(CN)cc2)c1C [Example 19, 2,5-Dimethyl-1-(5-methyl-2-phenyl-oxazol-4-ylmethyl)-1H-pyrrole-3-carboxylic acid 4-aminomethyl-benzylamide] | 768 | > 10000
Cc1cc(C(=O)NCc2ccc(CN)cc2)c(C)n1Cc1cccs1 [Example 20, 2,5-Dimethyl-1-thiophen-2-ylmethyl-1H-pyrrole-3-carboxylic acid 4-amidomethyl-benzylamide] | 4950 | 2400
Cc1cc(C(=O)NCc2ccc(CN)cc2)c(C)n1Cc1ccc(-c2ccccc2)s1 [Example 22, 2,5-Dimethyl-1-(5-phenyl-thiophen-2-ylmethyl)-1H-pyrrole-3-carboxylic acid 4-aminomethyl-benzylamide] | 3270 | > 10000
Cc1nc(-c2ccc(Cn3c(C)cc(C(=O)NCc4ccc(CN)cc4)c3C)s2)cs1 [Example 23, 2,5-Dimethyl-1-[5-(2-methyl-thiazol-4-yl)-thiophen-2-ylmethyl]-1H-pyrrole-3-carboxylic acid 4-aminomethyl-benzylamide] | 1600 | > 10000

Structure (SMILES) | IC50 (Human plasma kallikrein) [nM] | IC50 (Human KLK1) [nM]
Cc1cc(C(=O)NCc2ccc(CN)cc2)c(-c2ccccc2)n1Cc1csc(-c2ccccc2)n1 [Example 24, 5-Methyl-2-phenyl-1-(2-phenyl-thiazol-4-ylmethyl)-1H-pyrrole-3-carboxylic acid 4-aminomethyl-benzylamide] | 431 | > 10000
Cc1c(C(=O)NCc2ccc(CN)cc2)ccn1Cc1csc(-c2ccccc2)n1 [Example 25, 2-Methyl-1-(2-phenyl-thiazol-4-ylmethyl)-1H-pyrrole-3-carboxylic acid 4-aminomethyl-benzylamide] | 1330 | > 10000
Cc1cc(C(=O)NCc2ccc(CN)cc2)c(C)n1Cc1csc(-c2cccs2)n1 [Example 26, 2,5-Dimethyl-1-[2-(2-thienyl)-thiazol-4-ylmethyl]-1H-pyrrole-3-carboxylic acid 4-aminomethyl-benzylamide] | 437 | > 10000
Cc1cc(C(=O)NCc2ccc(CN)cc2)c(C)n1Cc1csc(-c2cccc(Cl)c2)n1 [Example 27, 2,5-Dimethyl-1-[2-(3-chlorophenyl)-thiazol-4-ylmethyl]-1H-pyrrole-3-carboxylic acid 4-aminomethyl-benzylamide] | 848 | > 10000
Cc1cc(C(=O)NCc2ccc(CN)cc2)c(C)n1Cc1csc(-c2ccc(Cl)cc2)n1 [Example 28, 2,5-Dimethyl-1-[2-(4-chlorophenyl)-thiazol-4-ylmethyl]-1H-pyrrole-3-carboxylic acid 4-aminomethyl-benzylamide] | 1330 | > 10000
Cc1cc(C(=O)NCc2ccc(CN)cc2)c(C)n1Cc1csc(-c2cccc(F)c2)n1 [Example 29, 1-[2-(3-Fluoro-phenyl)-thiazol-4-ylmethyl]-2,5-dimethyl-1H-pyrrole-3-carboxylic acid 4-aminomethyl-benzylamide] | 140 | > 10000
Cc1cccc(-c2nc(Cn3c(C)cc(C(=O)NCc4ccc(CN)cc4)c3C)cs2)c1 [Example 30, 2,5-Dimethyl-1-(2-m-tolyl-thiazol-4-ylmethyl)-1H-pyrrole-3-carboxylic acid 4-aminomethyl-benzylamide] | 773 | > 10000
Cc1cc(C(=O)NCc2ccc(CN)cc2)c(C)n1Cc1csc(-c2cccnc2)n1 [Example 31, 2,5-Dimethyl-1-(2-pyridin-3-yl-thiazol-4-ylmethyl)-1H-pyrrole-3-carboxylic acid 4-aminomethyl-benzylamide] | 251 | 8080
Cc1cc(C(=O)NCc2ccc(CN)cc2)c(C)n1Cc1csc(-c2ccncc2)n1 [Example 32, 2,5-Dimethyl-1-(2-pyridin-4-yl-thiazol-4-ylmethyl)-1H-pyrrole-3-carboxylic acid 4-aminomethyl-benzylamide] | 732 | > 10000
Cc1ccc(-c2nc(Cn3c(C)cc(C(=O)NCc4ccc(CN)cc4)c3C)cs2)cc1 [Example 35, 2,5-Dimethyl-1-(2-p-tolyl-thiazol-4-ylmethyl)-1H-pyrrole-3-carboxylic acid 4-aminomethyl-benzylamide] | 2100 | > 10000
Cc1cc(C(=O)NCc2ccc(CN)cc2)c(C)n1Cc1csc(-c2ccccn2)n1 [Example 36, 2,5-Dimethyl-1-(2-pyridin-2-yl-thiazol-4-ylmethyl)-1H-pyrrole-3-carboxylic acid 4-aminomethyl-benzylamide] | 203 | > 10000
Cc1cc(C(=O)NCc2ccc(CN)cc2)c(C)n1Cc1csc(Cc2ccccc2)n1 [Example 38, 1-(2-Benzyl-thiazol-4-ylmethyl)-2,5-dimethyl-1H-pyrrole-3-carboxylic acid 4-aminomethyl-benzylamide] | 2310 | > 10000
Cc1cc(C(=O)NCc2ccc(CN)cc2)c(C)n1Cc1csc(-c2cnccn2)n1 [Example 40, 2,5-Dimethyl-1-(2-pyrazin-2-yl-thiazol-4-ylmethyl)-1H-pyrrole-3-carboxylic acid 4-aminomethyl-benzylamide] | 1660 | > 10000
CCOc1ccc(-c2nc(Cn3c(C)cc(C(=O)NCc4ccc(CN)cc4)c3C)cs2)cc1 [Example 41, 1-[2-(4-Ethoxy-phenyl)-thiazol-4-ylmethyl]-2,5-dimethyl-1H-pyrrole-3-carboxylic acid 4-aminomethyl-benzylamide] | 4700 | > 10000
Cc1cc(C(=O)NCc2ccc(CN)cc2)c(C)n1Cc1ccccc1 [Example 55, 1-Benzyl-2,5-dimethyl-1H-pyrrole-3-carboxylic acid 4-aminomethyl-benzylamide] | 3270 | –
